{"source": "PubChem BioAssay AID2060907", "about": "(Molecular Pharmacology Branch, DTP, NCI, 2025)", "test_system": "388556-164-R-J1-PDC complex spheroid viability", "assay": "Anticancer human tumor 388556-164-R-J1-PDC patient-derived colon adenocarcinoma cell line growth inhibition [RAS]", "conditions": "for IC50: curve of first compound; for viability, T/C: stronger effect = lower value", "excerpt": "RAS pathway inhibitors in Combinations in Complex Spheroids\nA high-throughput screen of multi-cell type tumor spheroids was designed to identify active combinations of RAS pathway inhibitors and targeted small molecules. Complex spheroids include a stromal component modeled by human endothelial cells (HUVEC) and fibroblasts modeled by human mesenchymal stem cells (MSCs). The concentration ranges selected for each drug and investigational agent were based upon clinically achievable concentrations if the clinical Cmax of the agent was known.\nCompounds. The drugs and investigational agents: abemaciclib (NSC768073), cobimetinib (NSC768068), divarasib (GDC6063, NSC841802), docetaxel (NSC628503), GDC-1971 (RLY-1971, NSC841576), gemcitabine (NSC613327), inavolisib (NSC800729), ipatasertib (NSC767898), KB-0742 (NSC834161), MRTX-1133 (NSC836407), osimertinib (NSC779217), RMC-4630 (NSC839698), RMC-6236 (NSC851965), RMC-6291 (NSC852671), Ro-3306 (NSC812927), sapanisertib (NSC764658), SN-38 (NSC673596), staurosporine (NSC755774), SY5609 (NSC837396), and tovorafenib (DAY101, NSC766906), were obtained from the National Cancer Institute (NCI) Developmental Therapeutics Program Chemical Repository. The FDA-approved anticancer drug set is available from the NCI Developmental Therapeutics Program. […] The stock solutions were prepared in dimethyl sulfoxide (DMSO, Sigma-Aldrich, St. Louis, MO, cat. D2650) at 800-fold the tested concentration and stored at -70 degrees C prior to their use. All drugs and investigational agents were tested over a range starting from a high concentration at or near the clinical Cmax and decreasing in half-log increments. If the clinical Cmax for an agent had not been determined, the highest concentration tested was 10 microM.\nCell Culture. All cells were maintained in an incubator at 37 degrees C and 5% CO2 with 95% humidity. The PDC lines were cultured according to standard operating procedures established by the NCI PDMR. All PDCs were thawed and cultured in Matrigel-coated flasks prepared with a working solution of 1X Ham's F-12 nutrient mix, without supplementation (Invitrogen, Waltham, MA, cat. 11765054), 100 U/mL penicillin-streptomycin (Invitrogen, cat. 15140122), and 2.5% Matrigel (Corning Inc., Corning, NY, cat. 354248) for the first three passages. The 362531-283-R-J2-PDC and 782815-120-R-J1-PDC lines were cultured in 6C/Colon 1B media, which includes advanced DMEM/F-12 (Thermo Fisher Scientific, cat. 12634028), 10 mM HEPES (Thermo Fisher Scientific, cat. 15630080), 1X GlutaMAX supplement (Thermo Fisher Scientific, cat. 35050061), 0.1 mg/mL primocin (InvivoGen, San Diego, CA, cat. ant-pm-2), 10% defined fetal bovine serum, heat inactivated (HyClone Laboratories Inc., Logan, UT, cat. SH30070.03HI), 50% L-WRN conditioned media (ATCC, cat. CRL-3276), 1.25 mM N-Acetyl-L-cysteine (Sigma-Aldrich, cat. A9165), 10 mM nicotinamide (Sigma-Aldrich, cat. N0636), 1X B-27 supplement (Thermo Fisher Scientific, cat. 17504044), 1X N-2 supplement (Thermo Fisher Scientific, cat. 17502048), 50 ng/mL human EGF (Thermo Fisher Scientific, cat. PHG0311), and 10 microM Y-27632 dihydrochloride (Tocris Bioscience, cat. 1254). The K12877-001-R-J1-PDC line was cultured in 6I media, which includes all 6C/Colon 1B media plus 10 ng/mL human FGF-10 (PeproTech, cat. 100-26), 1 ng/mL human FGF-2 (PeproTech, cat. 100-18B), 1 µM prostaglandin E2 (Tocris Bioscience, cat. 2296), […] hydrocortisone (Sigma-Aldrich, cat. H4001), and […] bovine insulin (Sigma-Aldrich, cat. I6634). The K86415-001-R-J1-PDC line was cultured in 6D media, which includes all 6C/Colon 1B media components minus the L-WRN conditioned media. The 485176-168-R4-J1-PDC was cultured in PANC media, which includes all 6C/Colon 1B media plus 100 ng/mL human FGF-10 (PeproTech, cat. 100-26), 500 nM SB-431542 (Selleckchem, cat. S1067), and 10 nM gastrin (Tocris Bioscience, cat. 3006). […]", "data": [{"compound": "NC1c2ccccc2OC12CCN(c1cnc3c(N4CCCc5ncccc54)n[nH]c3n1)CC2", "note": "(configuration not stated) + C#Cc1c(F)ccc2cc(O)cc(-c3ncc4c(N5CC6CCC(C5)N6)nc(OCC56CCCN5CC(F)C6)nc4c3F)c12;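 note: spheroids exposed to compound for 7 days before readout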;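 for viability, T/C: 100% = DMSO vehicle control luminescence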", "values": [{"measurement": "IC50", "setting": "second compound 0.0316 µM", "result": 363, "unit": "nM"}, {"measurement": "IC50", "setting": "second compound 0.1 µM", "result": 149, "unit": "nM"}, {"measurement": "IC50", "setting": "second compound 0.316 µM", "result": 157, "unit": "nM"}, {"measurement": "IC50", "setting": "second compound 1 µM", "result": 84.6, "unit": "nM"}, {"measurement": "IC50", "setting": "second compound 3.16 µM", "result": "< 31.6", "unit": "nM"}, {"measurement": "IC50", "setting": "second compound 10 µM", "result": "< 31.6", "unit": "nM"}, {"measurement": "viability, T/C", "setting": "second compound 0.0316 µM, first compound 0.0316 µM", "result": 58.8, "unit": "%"}, {"measurement": "viability, T/C", "setting": "second compound 0.0316 µM, first compound 0.1 µM", "result": 59.1, "unit": "%"}, {"measurement": "viability, T/C", "setting": "second compound 0.0316 µM, first compound 0.316 µM", "result": 50.1, "unit": "%"}, {"measurement": "viability, T/C", "setting": "second compound 0.0316 µM, first compound 1 µM", "result": 41.8, "unit": "%"}, {"measurement": "viability, T/C", "setting": "second compound 0.0316 µM, first compound 3.16 µM", "result": 35.2, "unit": "%"}, {"measurement": "viability, T/C", "setting": "second compound 0.0316 µM, first compound 10 µM", "result": 31.3, "unit": "%"}, {"measurement": "viability, T/C", "setting": "second compound 0.1 µM, first compound 0.0316 µM", "result": 65.7, "unit": "%"}, {"measurement": "viability, T/C", "setting": "second compound 0.1 µM, first compound 0.1 µM", "result": 55.6, "unit": "%"}, {"measurement": "viability, T/C", "setting": "second compound 0.1 µM, first compound 0.316 µM", "result": 43.8, "unit": "%"}, {"measurement": "viability, T/C", "setting": "second compound 0.1 µM, first compound 1 µM", "result": 32.5, "unit": "%"}, {"measurement": "viability, T/C", "setting": "second compound 0.1 µM, first compound 3.16 µM", "result": 36.8, "unit": "%"}, {"measurement": "viability, T/C", "setting": "second compound 0.1 µM, first compound 10 µM", "result": 28.4, "unit": "%"}, {"measurement": "viability, T/C", "setting": "second compound 0.316 µM, first compound 0.0316 µM", "result": 63.6, "unit": "%"}, {"measurement": "viability, T/C", "setting": "second compound 0.316 µM, first compound 0.1 µM", "result": 58.2, "unit": "%"}, {"measurement": "viability, T/C", "setting": "second compound 0.316 µM, first compound 0.316 µM", "result": 38.2, "unit": "%"}, {"measurement": "viability, T/C", "setting": "second compound 0.316 µM, first compound 1 µM", "result": 33, "unit": "%"}, {"measurement": "viability, T/C", "setting": "second compound 0.316 µM, first compound 3.16 µM", "result": 26.6, "unit": "%"}, {"measurement": "viability, T/C", "setting": "second compound 0.316 µM, first compound 10 µM", "result": 21, "unit": "%"}, {"measurement": "viability, T/C", "setting": "second compound 1 µM, first compound 0.0316 µM", "result": 54.3, "unit": "%"}, {"measurement": "viability, T/C", "setting": "second compound 1 µM, first compound 0.1 µM", "result": 49.7, "unit": "%"}, {"measurement": "viability, T/C", "setting": "second compound 1 µM, first compound 0.316 µM", "result": 32, "unit": "%"}, {"measurement": "viability, T/C", "setting": "second compound 1 µM, first compound 1 µM", "result": 27.2, "unit": "%"}, {"measurement": "viability, T/C", "setting": "second compound 1 µM, first compound 3.16 µM", "result": 27.7, "unit": "%"}, {"measurement": "viability, T/C", "setting": "second compound 1 µM, first compound 10 µM", "result": 20.2, "unit": "%"}, {"measurement": "viability, T/C", "setting": "second compound 3.16 µM, first compound 0.0316 µM", "result": 51.2, "unit": "%"}, {"measurement": "viability, T/C", "setting": "second compound 3.16 µM, first compound 0.1 µM", "result": 35.9, "unit": "%"}, {"measurement": "viability, T/C", "setting": "second compound 3.16 µM, first compound 0.316 µM", "result": 35, "unit": "%"}, {"measurement": "viability, T/C", "setting": "second compound 3.16 µM, first compound 1 µM", "result": 29.3, "unit": "%"}, {"measurement": "viability, T/C", "setting": "second compound 3.16 µM, first compound 3.16 µM", "result": 26.6, "unit": "%"}, {"measurement": "viability, T/C", "setting": "second compound 3.16 µM, first compound 10 µM", "result": 18.8, "unit": "%"}, {"measurement": "viability, T/C", "setting": "second compound 10 µM, first compound 0.0316 µM", "result": 39, "unit": "%"}, {"measurement": "viability, T/C", "setting": "second compound 10 µM, first compound 0.1 µM", "result": 31, "unit": "%"}, {"measurement": "viability, T/C", "setting": "second compound 10 µM, first compound 0.316 µM", "result": 24.1, "unit": "%"}, {"measurement": "viability, T/C", "setting": "second compound 10 µM, first compound 1 µM", "result": 23.9, "unit": "%"}, {"measurement": "viability, T/C", "setting": "second compound 10 µM, first compound 3.16 µM", "result": 18.6, "unit": "%"}, {"measurement": "viability, T/C", "setting": "second compound 10 µM, first compound 10 µM", "result": 16.9, "unit": "%"}]}]}
